Measurements published in PubChem BioAssay (NCI).
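48-hour exposure; five concentrations; linearly interpolated endpoints. TGI marks complete inhibition of growth.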

Experiments:
Assay in all cases: inhibition of tumour cell growth, NCI panel, 48 h
[1] = tested on: CAKI-1 renal
[2] = tested on: NCI/ADR-RES ovarian
[3] = tested on: TK-10 renal
[4] = tested on: UACC-257 melanoma
[5] = tested on: SF-539 CNS
[6] = tested on: LOX IMVI melanoma
[7] = tested on: COLO 205 colon
[8] = tested on: OVCAR-3 ovarian
[9] = tested on: KM12 colon
[10] = tested on: SK-MEL-5 melanoma

Row | SMILES | TGI [1] [µM] | TGI [2] [µM] | TGI [3] [µM] | TGI [4] [µM] | TGI [5] [µM] | TGI [6] [µM] | TGI [7] [µM] | TGI [8] [µM] | TGI [9] [µM] | TGI [10] [µM]
1 | CCOC(=O)c1c(SC(=O)c2cc(OC)c(OC)c(OC)c2)n(-c2ccccc2)c(=S)n(-c2ccccc2)c1=O | > 100 | > 100 | > 100 | > 100 | > 100 | > 100 | > 100 | > 100 | > 100 | –
2 | CN(C)CCCn1c(Cc2ccccc2)nc2cc(C(F)(F)F)ccc21 | 51.1 | > 100 | 98.4 | 34.2 | – | 35.6 | 34.7 | > 100 | 31.3 | 33.2
3 | COc1cc(Oc2nc3ccccc3nc2C(=O)O)cc(OC)c1OC | > 100 | > 100 | > 100 | > 100 | – | > 100 | > 100 | > 100 | > 100 | > 100
4 | COC(=O)c1c(OC(C)=O)ccc2c1c1c(OC(C)=O)c3ccccc3c(OC(C)=O)c1n2Cc1cc(OC)cc(OC)c1 | > 100 | > 100 | > 100 | > 100 | 9.27 | – | > 100 | > 100 | 8.13 | 24.3
5 | COC(=O)C1=C(C)N2CCCOC2(C)C(C(=O)OC)C1c1cccc(Cl)c1 (stereo unspecified) | 92.5 | – | > 100 | 57.1 | 93.8 | – | 37.9 | 70.8 | 43.9 | > 100
6 | COCn1c2ccc(OC(C)=O)cc2c2c(=O)oc(C)nc21 | > 100 | > 100 | > 100 | > 100 | > 100 | > 100 | > 100 | – | > 100 | > 100
7 | CCSc1ncnc2c(C3OC(CO)C(O)C3O)nsc12 (stereo unspecified) | > 100 | > 100 | – | – | > 100 | > 100 | > 100 | > 100 | – | > 100
8 | CCCC(Sc1nc(N)nc2nc[nH]c12)C(=O)O (stereo unspecified) | > 100 | > 100 | 88 | > 100 | – | > 100 | > 100 | > 100 | > 100 | > 100
9 | C[C@]12CC[C@H]3[C@@H](CCC4=CC(=O)C=C[C@@]43O)[C@@H]1CCC2=O | > 100 | > 100 | – | > 100 | > 100 | > 100 | > 100 | > 100 | > 100 | > 100
10 | Cc1ccc(S(=O)(=O)NC(=O)NC(Cc2c[nH]c3ccccc23)C(=O)O)cc1 (stereo unspecified) | – | > 100 | > 100 | > 100 | > 100 | > 100 | > 100 | – | > 100 | > 100
11 | Cc1cc2c(cc1-c1cc3c(cc1C)C(C(C)C)=C(O)C(=O)/C3=C\Nc1nc(-c3ccccc3)cs1)/C(=C/Nc1nc(-c3ccccc3)cs1)C(=O)C(O)=C2C(C)C | > 100 | 63.9 | – | 47 | 43.9 | – | > 100 | 36 | > 100 | 31.4
12 | O=S(=O)(c1cc(Cl)ccc1Cl)N1CCN(S(=O)(=O)c2cc(Cl)ccc2Cl)CC1 | > 100 | > 100 | > 100 | > 100 | > 100 | – | – | > 100 | > 100 | > 100
13 | COCn1c(C)c(C)c2c(=O)oc(=O)[nH]c21 | > 100 | > 100 | > 100 | > 100 | > 100 | > 100 | > 100 | – | > 100 | > 100
14 | CC(C)CC(=O)NC(Nc1ccc(S(=O)(=O)Nc2ncccn2)cc1)(C(F)(F)F)C(F)(F)F | > 100 | > 100 | – | > 100 | > 100 | > 100 | > 100 | > 100 | > 100 | > 100
15 | O=C1COC(c2ccccc2O)=NN1CCCN1CCCC1 | > 100 | > 100 | > 100 | > 100 | > 100 | – | > 100 | > 100 | > 100 | > 100
16 | CCNC(=S)N/N=C/c1cc(OC)ccc1O | – | > 100 | > 100 | > 100 | > 100 | > 100 | > 100 | > 100 | > 100 | > 100
17 | CC1CN=C(Nc2cccc(C(F)(F)F)c2)S1 (stereo unspecified) | – | – | > 100 | > 100 | > 100 | > 100 | – | > 100 | > 100 | –
18 | COc1cc(C2c3cc4c(cc3C(O)C3CCC(=O)N23)OCO4)cc(OC)c1OC (stereo unspecified) | > 100 | > 100 | > 100 | > 100 | – | > 100 | > 100 | > 100 | > 100 | > 100
19 | Cc1ccccc1N=C(N)NC#N | > 100 | > 100 | > 100 | > 100 | > 100 | > 100 | > 100 | – | – | > 100
20 | CC(=O)Nc1ccc(S(=O)(=O)Nc2nnc(S(N)(=O)=O)s2)cc1 | > 100 | > 100 | > 100 | – | > 100 | > 100 | > 100 | – | > 100 | –
21 | CC(=O)N1N=C(c2c(O)ccc3ccccc23)CC1C(=O)c1ccco1 (stereo unspecified) | > 100 | > 100 | > 100 | > 100 | 66.9 | – | 86 | 44 | > 100 | 89.9
22 | Cc1nc2c(cc1C(=O)NN)c(=O)n(C)c(=O)n2C | > 100 | > 100 | > 100 | > 100 | – | – | > 100 | > 100 | > 100 | > 100
23 | C=Nc1ccc([N+](=O)[O-])cc1 | > 100 | – | > 100 | > 100 | > 100 | > 100 | > 100 | > 100 | > 100 | > 100
24 | CSC1=Nc2ccccc2-c2nc(-c3ccccc3)cc(-c3ccccc3)c2C1 | 30 | > 100 | 36.8 | > 100 | > 100 | > 100 | > 100 | – | > 100 | 75.1
25 | Cc1cccc2c1C(=O)C1(Cc3ccccc3C1=O)C2 (stereo unspecified) | – | > 100 | > 100 | > 100 | > 100 | > 100 | > 100 | > 100 | – | > 100
